Assay results reported in PubChem BioAssay AID330 (DTP/NCI, 2004).
Where “and” joins values, the source holds several entries; their conditions need not be identical. Equal values may be shown once. Inconclusive results and toxic doses are left out. How the source made its calls: active means survival T/C of 150% or more; inactive means T/C below 125% in these data.

System: P388 leukemia ip, CD2F1 mice, survival T/C
Test: NCI In Vivo Anticancer Drug Screen. Data for tumor model P388 Leukemia (intraperitoneal) in CD2F1 (CDF1) mice
Details: endpoint: median survival time, higher = longer survival
Summary of the method: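 Mice carrying the transplanted tumor received test compound or vehicle. Survival was recorded in each group, and the value is the treated-group measurement divided by that of the vehicle-treated control group.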

[1] = dose: 60.0 mg/kg/injection, schedule: Q01DX005 (ip), vehicle: saline with Tween-80
[2] = dose: 120.0 mg/kg/injection, schedule: Q01DX005 (ip), vehicle: saline with Tween-80
[3] = dose: 240.0 mg/kg/injection, schedule: Q01DX005 (ip), vehicle: saline with Tween-80
[4] = dose: 1.5 mg/kg/injection, schedule: Q01DX005 (ip), vehicle: saline
[5] = dose: 3.0 mg/kg/injection, schedule: Q01DX005 (ip), vehicle: saline
[6] = dose: 6.0 mg/kg/injection, schedule: Q01DX005 (ip), vehicle: saline
[7] = dose: 50.0 mg/kg/injection, schedule: Q01DX005 (ip), vehicle: Klucel (hydroxypropylcellulose) (HPC)
[8] = dose: 100.0 mg/kg/injection, schedule: Q01DX005 (ip), vehicle: Klucel (hydroxypropylcellulose) (HPC)
[9] = dose: 200.0 mg/kg/injection, schedule: Q01DX005 (ip), vehicle: Klucel (hydroxypropylcellulose) (HPC)
[10] = dose: 50.0 mg/kg/injection, schedule: Q01DX005 (ip), vehicle: saline with Tween-80
[11] = dose: 100.0 mg/kg/injection, schedule: Q01DX005 (ip), vehicle: saline with Tween-80
[12] = dose: 200.0 mg/kg/injection, schedule: Q01DX005 (ip), vehicle: saline with Tween-80

Measured: T/C

OCC12OCC(C=CC1O)O2 (configuration not stated)
inactive: dose: 60.0 mg/kg/injection, schedule: Q01DX005 (ip), vehicle: saline 99 % of control | dose: 120.0 mg/kg/injection, schedule: Q01DX005 (ip), vehicle: saline 91 % of control | dose: 240.0 mg/kg/injection, schedule: Q01DX005 (ip), vehicle: saline 98 % of control

CCN(CC)CCNC
inactive: dose: 50.0 mg/kg/injection, schedule: Q01DX005 (ip), vehicle: saline 99 % of control | dose: 100.0 mg/kg/injection, schedule: Q01DX005 (ip), vehicle: saline 95 % of control | dose: 200.0 mg/kg/injection, schedule: Q01DX005 (ip), vehicle: saline 98 % of control

Cc1nc2nc3n(c(=O)c2nc1C)CCCS3
inactive: dose: 50.0 mg/kg/injection, schedule: Q01DX009 (ip), vehicle: saline 105 % of control | dose: 100.0 mg/kg/injection, schedule: Q01DX009 (ip), vehicle: saline 103 % of control | dose: 200.0 mg/kg/injection, schedule: Q01DX009 (ip), vehicle: saline 113 % of control

COc1ccc2c(c1)-c1c3c(cc4ccnc(c14)C2=O)OCO3
inactive: dose: 2.5 mg/kg/injection, schedule: Q01DX009 (ip), vehicle: saline with Tween-80 107 % of control | dose: 5.0 mg/kg/injection, schedule: Q01DX009 (ip), vehicle: saline with Tween-80 114 % of control | dose: 10.0 mg/kg/injection, schedule: Q01DX009 (ip), vehicle: saline with Tween-80 122 % of control

Cc1[nH]c2ccccc2c1SCc1ccccc1
inactive: dose: 25.0 mg/kg/injection, schedule: Q01DX009 (ip), vehicle: saline + alcohol 94 % of control | dose: 50.0 mg/kg/injection, schedule: Q01DX009 (ip), vehicle: saline + alcohol 100 % of control | dose: 100.0 mg/kg/injection, schedule: Q01DX009 (ip), vehicle: saline + alcohol 99 % of control

N#Cc1n[nH]c2nc(=S)sc(N)c12
inactive: dose: 100.0 mg/kg/injection, schedule: Q04DX002 (ip), vehicle: water 103 % of control | dose: 200.0 mg/kg/injection, schedule: Q04DX002 (ip), vehicle: water 90 % of control | dose: 400.0 mg/kg/injection, schedule: Q04DX002 (ip), vehicle: water 97 % of control

C#CCOc1ccccc1/C(Cl)=N/Nc1ccc([N+](=O)[O-])cc1[N+](=O)[O-]
inactive: dose: 6.25 mg/kg/injection, schedule: Q01DX009 (ip), vehicle: saline with Tween-80 97 % of control | dose: 25.0 mg/kg/injection, schedule: Q01DX009 (ip), vehicle: saline with Tween-80 90 % of control

OCCN1CCN(CC/C=C2\c3ccccc3COc3ccc(Cl)cc32)CC1
inactive: dose: 6.25 mg/kg/injection, schedule: Q04DX003 (ip), vehicle: saline 100 % of control | dose: 12.5 mg/kg/injection, schedule: Q04DX003 (ip), vehicle: saline 114 % of control and 117 % of control | dose: 25.0 mg/kg/injection, schedule: Q04DX003 (ip), vehicle: saline 110 % of control | dose: 50.0 mg/kg/injection, schedule: Q04DX003 (ip), vehicle: saline 110 % of control | dose: 100.0 mg/kg/injection, schedule: Q04DX003 (ip), vehicle: saline 97 % of control

S=c1sc(-c2ccc(Cl)cc2)nn1CSc1nc2ccccc2[nH]1
inactive: [1] 100 % of control | [2] 98 % of control | [3] 89 % of control

CCOc1ccc(C(=O)Nc2c(C)cc(C)cc2C)cc1
inactive: dose: 100.0 mg/kg/injection, schedule: Q01DX009 (ip), vehicle: saline with Tween-80 90 % of control | dose: 200.0 mg/kg/injection, schedule: Q01DX009 (ip), vehicle: saline with Tween-80 95 % of control | dose: 400.0 mg/kg/injection, schedule: Q01DX009 (ip), vehicle: saline with Tween-80 105 % of control

C[C@H](N)[C@H](O)c1cccc(O)c1
inactive: [4] 103 % of control | [5] 99 % of control | [6] 110 % of control | dose: 6.25 mg/kg/injection, schedule: Q01DX005 (ip), vehicle: saline 115 % of control | dose: 25.0 mg/kg/injection, schedule: Q01DX005 (ip), vehicle: saline 100 % of control

Cc1nc2ncn(-c3ccccc3)c2c(=O)n1-c1cccnc1
inactive: [7] 105 % of control | [8] 110 % of control | [9] 110 % of control

CCC(=O)OC1C2(O)C(OC(=O)C(C)C)C3(C)CC24OC2(C)OC15C1CC(=O)OC(c6ccoc6)C1(C)CCC5(O2)C4(C)C3CC(=O)OC (configuration not stated)
inactive: dose: 0.37 mg/kg/injection, schedule: Q01DX009 (ip), vehicle: Klucel (hydroxypropylcellulose) (HPC) 108 % of control | dose: 0.75 mg/kg/injection, schedule: Q01DX009 (ip), vehicle: Klucel (hydroxypropylcellulose) (HPC) 101 % of control | dose: 1.5 mg/kg/injection, schedule: Q01DX009 (ip), vehicle: Klucel (hydroxypropylcellulose) (HPC) 102 % of control | dose: 3.0 mg/kg/injection, schedule: Q01DX009 (ip), vehicle: Klucel (hydroxypropylcellulose) (HPC) 96 % of control

CCCCCCCCCC(=O)NC(CN1CCOCC1)C(=O)c1ccccc1 (configuration not stated)
inactive: dose: 200.0 mg/kg/injection, schedule: Q04DX003 (ip), vehicle: saline 87 % of control | dose: 400.0 mg/kg/injection, schedule: Q04DX003 (ip), vehicle: saline 88 % of control

O=C(Oc1ccccc1)OC1CCCN(C(=O)Oc2ccccc2)C1 (configuration not stated)
inactive: dose: 50.0 mg/kg/injection, schedule: Q01DX009 (ip), vehicle: Klucel (hydroxypropylcellulose) (HPC) 93 % of control | dose: 100.0 mg/kg/injection, schedule: Q01DX009 (ip), vehicle: Klucel (hydroxypropylcellulose) (HPC) 93 % of control | dose: 200.0 mg/kg/injection, schedule: Q01DX009 (ip), vehicle: Klucel (hydroxypropylcellulose) (HPC) 93 % of control

CC(=O)NC(CC(=O)O)C(=O)O (configuration not stated)
inactive: dose: 100.0 mg/kg/injection, schedule: Q01DX001 (ip), vehicle: saline 106 % of control | dose: 200.0 mg/kg/injection, schedule: Q01DX001 (ip), vehicle: saline 100 % of control | dose: 400.0 mg/kg/injection, schedule: Q01DX001 (ip), vehicle: saline 97 % of control

N/N=C/c1cccn1-c1ccccc1Cl
inactive: [1] 93 % of control | [2] 92 % of control

CC(C)C(C(=O)O)N(C)C(=O)c1cnc2ccccc2n1 (configuration not stated)
inactive: [1] 104 % of control | [2] 97 % of control | [3] 99 % of control

CC(=O)c1c(O)c2ccc(Cl)cc2[nH]c1=O
inactive: [10] 99 % of control | [11] 96 % of control | [12] 99 % of control

O=C(O)/C(=C/c1ccc([N+](=O)[O-])cc1)c1ccccc1
inactive: [7] 102 % of control | [8] 95 % of control | [9] 102 % of control

O=C1CC2c3ccccc3C1c1ccccc12
inactive: [10] 95 % of control | [11] 94 % of control | [12] 96 % of control

CCOC(=O)C(=CNCc1ccccc1)C(=O)OCC
inactive: dose: 15.0 mg/kg/injection, schedule: Q01DX009 (ip), vehicle: saline with Tween-80 106 % of control | dose: 30.0 mg/kg/injection, schedule: Q01DX009 (ip), vehicle: saline with Tween-80 104 % of control | dose: 60.0 mg/kg/injection, schedule: Q01DX009 (ip), vehicle: saline with Tween-80 95 % of control

N#Cc1ccccc1N=Nc1nc(N)c(C(N)=O)[nH]1
inactive: dose: 100.0 mg/kg/injection, schedule: Q04DX003 (ip), vehicle: Klucel (hydroxypropylcellulose) (HPC) 100 % of control | dose: 200.0 mg/kg/injection, schedule: Q04DX003 (ip), vehicle: Klucel (hydroxypropylcellulose) (HPC) 103 % of control | dose: 400.0 mg/kg/injection, schedule: Q04DX003 (ip), vehicle: Klucel (hydroxypropylcellulose) (HPC) 100 % of control

CCN(CC)CCNc1nc(NCCN(CC)CC)c2cn[nH]c2n1
inactive: [4] 99 % of control | [5] 103 % of control | [6] 100 % of control and 102 % of control

N=c1nc(N)nc2n1N=C(c1ccc(Cl)cc1)CS2
inactive: dose: 25.0 mg/kg/injection, schedule: Q01DX005 (ip), vehicle: saline with Tween-80 102 % of control | [10] 92 % of control | [11] 90 % of control

COc1ccccc1-n1c(C)nc2[nH]ncc2c1=O
inactive: [7] 101 % of control | [8] 97 % of control | [9] 96 % of control

COCC1CCCN1 (configuration not stated)
inactive: dose: 100.0 mg/kg/injection, schedule: Q04DX002 (ip), vehicle: saline 104 % of control | dose: 200.0 mg/kg/injection, schedule: Q04DX002 (ip), vehicle: saline 110 % of control
